Results on 86 compounds are retold here after PubChem BioAssay AID2305 (GlaxoSmithKline (GSK), 2010).

Values joined by “and” are separate entries in the source; they are usually repeats but may differ in a detail not shown here. Equal values may be shown once.

In general, IC50 refers to the point on the concentration scale where inhibition reaches its midpoint. The low end stands for higher potency, the high end for lower potency.

The assay relates to P. falciparum 3D7 growth, pLDH absorbance. Description: P. falciparum 3D7 growth inhibition, dose response, strain 3D7 (AID 2305).

For `COc1ccc(C=C2SC(=N)N(c3ccccc3OC)C2=O)cc1`, the concentration for half-maximal inhibition (IC50) amounted to 300 nM.
Next, `CN(C)CCNC(=O)[C@H](CC1CCCCC1)NC(=O)c1ccc(O)c(-c2ccc(Cl)c(Cl)c2)c1`: 770 nM.
The figure for `CCCCc1cc(NCC)nc(Nc2ccc(OC)cc2)n1` is 1180 nM; for `O=C(Nc1cccc(-c2cccc(-c3nc4ccc(F)cc4[nH]3)c2)c1)c1ccncc1` it is 510 nM.
On to `CN(C)CCn1c(N)c(-c2nc3ccccc3s2)c2nc(C#N)c(C#N)nc21`, for which the IC50 is 1010 nM.
Consider `O=C(Nc1ccc(-c2ccccc2)cc1)Nc1cccc(Cn2nc(Cl)c(N3CCCNCC3)cc2=O)c1`, for which the 50% inhibitory concentration (IC50) came to 680 nM.
Take `CCCCOc1c(CNCCCCCCNCc2ccc3ccccc3c2OCCCC)ccc2ccccc12`: the half-inhibitory concentration (IC50) is 870 nM.
Compound `O=C(Nc1ccon1)c1cc(-c2cccnc2)nc2ccc(Br)cc12` returned an IC50 of 740 nM.
`O=C(NC1CCN(CC2(c3ccccc3F)CCCC2)CC1)c1ccn[nH]1`: the concentration for half-maximal inhibition (IC50) came out at 1000 nM.
The figure for `Cc1cc(C(=O)Nc2ccc(-c3nc4ccccc4[nH]3)cc2)ccc1[N+](=O)[O-]` is 670 nM; for `Nc1nc2c(ncn2OC[C@H]2COP(=O)(O)CO2)c(=O)[nH]1` it is 570 nM.
Compound `CS(=O)(=O)c1ccccc1CNC(=O)c1ccc(-c2ccc(-c3nc4ccc(C(F)(F)F)cc4[nH]3)s2)cc1` had an IC50 of 240 nM.
The figure for `O=C(Nc1ccc(-c2csc(-c3nc4ccccc4[nH]3)c2)cc1)Nc1ccsc1` is 550 nM; for `CCNC(=O)c1ccc(-n2nc(C)cc2-c2ccccc2)cc1` it is 1120 nM; for `COC(=O)Cc1ccc(N)c2ccccc12` it is 700 nM.
Turning to `CCOC(=O)c1cncc(/C=C/c2cc(C)cnc2N)c1`, the concentration for half-maximal inhibition (IC50) stood at 420 nM.
Next, `O=C(C=Cc1ccc(Cl)c(Cl)c1)NCCCCCN1CCCC(CCCNC(=O)c2sc3ccccc3c2Cl)C1` (stereo unspecified): 1030 nM; `COCCn1c(C)cc(C(=O)CN2C(=O)NC(C)(c3ccc(C(C)(C)C)cc3)C2=O)c1C` (stereo unspecified): 470 nM; `CC(=O)C1(c2ccccc2)CCN(CCC2(c3ccc(Cl)c(Cl)c3)CN(C(=O)c3cccc(Cl)c3)CCO2)CC1` (stereo unspecified): 850 nM.
Next, `O=C(Nc1ccnc2ccccc12)NC1CCN(Cc2ccccc2)CC1`: 990 nM.
The figure for `O=C(CCc1cnc[nH]1)Nc1cccc(-c2cccc(-c3nc4ccc(C(F)(F)F)cc4[nH]3)c2)c1` is 130 nM.
For the compound `Cc1cccc(C(O)CNc2ccnc(Nc3cccc(-c4csc(C)n4)c3)n2)c1` (stereo unspecified), the IC50 is 680 nM.
The figure for `CN(CC(=O)Nc1cc(C(F)(F)F)ccc1-n1cncn1)Cc1nc2ccccc2s1` is 1410 nM.
Next, `Cc1ccc(NC(=O)c2ccnc(N3CCN(c4ccncc4)CC3)c2)cc1F`: 870 nM.
The figure for `Cc1ccccc1C1CCN(C2CCC(NC(=O)/C=C/c3cc(C(F)(F)F)ccc3F)CC2)CC1` (stereo unspecified) is 840 nM; for `CC(C)c1ccc(OCC(O)CN(CCN2CCOCC2)C(=O)Nc2ccc(Br)cc2)cc1` (stereo unspecified) it is 720 nM.
`O=C(Nc1cccc(-c2nc3ccccc3[nH]2)c1)c1ccc(-c2cccc([N+](=O)[O-])c2)o1` came in with a 50% inhibitory concentration (IC50) of 150 nM.
The figure for `Cc1cccc(CN2CCCN(Cc3ccc(C(=O)Nc4ccc(C)c(F)c4)cc3)CC2)c1` is 1060 nM; for `O=C(NCC1CCC(C(=O)NC2CCCc3ccccc32)CC1)c1ccc(O)c(-c2ccc(Cl)c(Cl)c2)c1` (stereo unspecified) it is 1020 nM; for `CCCCCCNC(=O)C1Cc2c([nH]c3cc(Cl)ccc23)C2(CCN(CCC)CC2)N1` (stereo unspecified) it is 880 nM.
`CN(c1ccc2c(c1)nc(NCc1ccccc1)n2C)c1ccnc(Nc2ccc(CS(C)(=O)=O)cc2)n1`: the concentration for half-maximal inhibition (IC50) was 840 nM.
For the compound `O=S(=O)(NCCN1CCCC1)c1ccc(-c2cccc(CNCCc3cccs3)c2)cc1`, the concentration for half-maximal inhibition (IC50) is 930 nM.
As for `N#Cc1ccc(-c2ccc(C(=O)NCCCCN3CCC(c4cc(Br)c5c(c4O)CCCC5)CC3)cc2)cc1`, the IC50 worked out at 150 nM.
As for `Cc1cc(N[C@@H](CC(C)C)C(=O)NC2CCCC2)nc(NCCc2ccc(F)cc2)n1`, the IC50 came out at 790 nM.
The compound `CN1CCCN(Cc2ccc(-c3ccc(NC(=O)c4cccc(Cl)c4)cc3)cc2)CC1` came in with a half-inhibitory concentration (IC50) of 860 nM.
The figure for `O=C(c1ccc(-c2ccc(Cl)cc2)o1)N1CCc2cc3nccc(N4CCN5CCC[C@H]5C4)c3cc21` is 170 nM; for `Cc1cccc(C(=O)Nc2ccnc(N3CCC(N(C)Cc4ccccc4)CC3)c2)c1` it is 960 nM.
Next, `CN=C(N)c1ccc(NC(=O)C=Cc2ccc(C(=O)Nc3ccc(C(N)=NC)cc3)cc2)cc1`: 30 nM; `COc1cc2nccc(Nc3ccc(OCc4ccccc4)cc3)c2cc1OC`: 200 nM.
The figure for `COc1cccc(/C=C/C(=O)NC2CCC(CN3CCC(c4c[nH]c5ccccc45)CC3)CC2)c1` (stereo unspecified) is 830 nM and 770 nM.
With `COc1c(C2CCN(CCN3CCC(CNC(=O)c4ccc(-c5ccc(C#N)cc5)cc4)CC3)CC2)ccc2c1CCCC2`, the IC50 came to 460 nM.
On to `CCOc1ccc(C(=O)N2CCOC(CCN3CCC(c4ccccc4)CC3)(c3ccc(Cl)c(Cl)c3)C2)cc1` (stereo unspecified), for which the half-inhibitory concentration (IC50) was 850 nM.
For the compound `Cc1cccc2[nH]c(-c3ccc(-c4cccc(CNCc5cccc(N)c5)c4)s3)nc12`, the IC50 is 520 nM.
Regarding `CC1(C)N=C(N)NC(NOCc2ccc(Cl)c(Cl)c2)=N1`, the IC50 stood at 230 nM.
In turn, `N#CNC(=NCCCSc1csc(N=C(N)N)n1)NCCCCCCCCN=C(NC#N)NCCSCc1csc(N=C(N)N)n1` came in with a half-maximal inhibitory concentration (IC50) of 840 nM.
In turn, `COc1cc(F)c2ncc(Cl)c(CCN3CCC(NCc4cc5c(cn4)OCCO5)CC3)c2c1` displayed a half-maximal inhibitory concentration (IC50) of 480 nM.
`O=C(/C=C/c1ccc(Cl)c(Cl)c1)NCCCCCN1CCC(NC(=O)Nc2cc(Cl)cc(Cl)c2)CC1` showed an IC50 of 720 nM.
The compound `CS(=O)(=O)N(c1ccccc1)c1cc(C(=O)N[C@@H](Cc2ccccc2)[C@H](O)CNC2CCCCC2)cc(N2CCCC2=O)c1` displayed a half-inhibitory concentration (IC50) of 80 nM.
Next, `O=C(NCCCN(Cc1ccc(F)cc1)c1ccccn1)C(c1cc2ccccc2o1)N1CCN(C(c2ccccc2)c2ccccc2)CC1` (stereo unspecified): 840 nM; `Cc1nn(-c2ccc(Cl)cc2)c2[nH]c(CN3CCN(c4cccc(Cl)c4)CC3)cc(=O)c12`: 240 nM.
Next, `Cc1ccc(CN2CCCN(Cc3cccc(NC(=O)c4cc5ccccc5s4)c3)CC2)cc1C`: 730 nM; `COc1ccc(-c2cccc(NC(=O)c3cccs3)c2)cc1CN1CCCN(C)CC1`: 700 nM.
The figure for `COc1ccc2ncc(F)c([C@H](O)CN3CCC(NCc4cc5c(cn4)OCCO5)CC3)c2c1` is 290 nM.
The compound `COc1cc2nc(NCCCO)nc(Nc3ccc(Oc4ccccc4)cc3)c2cc1OC` returned a 50% inhibitory concentration (IC50) of 140 nM.
With `O=C(NCC1CCC(C(=O)NCc2cccc3ccccc23)CC1)c1ccc(O)c(-c2ccc(Cl)c(Cl)c2)c1` (stereo unspecified), the IC50 worked out at 750 nM.
The figure for `Cc1ccc(C(=O)Nc2ccc(Cl)c(N3CCN(CCc4ccccc4)CC3)c2)cc1` is 930 nM; for `FC(F)(F)COc1ccc(CNCCCCCCNCc2ccc(OCC(F)(F)F)c3ccccc23)c2ccccc12` it is 400 nM.
The compound `CC1CN(Cc2ccc(-c3cccc(-c4nc5ccc(F)cc5[nH]4)c3)cc2)CC(C)O1` (stereo unspecified) displayed an IC50 of 920 nM.
The figure for `O=C(Nc1cccc(CN2CCCN(Cc3ccc(O)cc3)CC2)c1)c1ccc2ccccc2c1` is 370 nM; for `Nc1ncc(-c2cccc(OCc3ccccc3)c2)cc1-c1nnc2ccc(Cl)nn12` it is 1430 nM.
For `COc1ccc(NS(=O)(=O)c2ccc(C(=O)Nc3ccc(C(F)(F)F)cc3)cc2)cc1N1CCN(CC2CC2)CC1`, the 50% inhibitory concentration (IC50) came to 830 nM.
On to `N=c1n(CCN2CCCC2)c2ccccc2n1CC(O)c1ccc(Cl)c(Cl)c1` (stereo unspecified), for which the half-maximal inhibitory concentration (IC50) was found to be 280 nM.
The figure for `Cc1cccc(Oc2cccc3[nH]nc(N)c23)c1` is 1040 nM; for `O=S(=O)(ON=C1CCc2ccccc21)c1ccc(Cl)cc1` it is 1310 nM; for `FC(F)(F)c1ccc2nc(-c3ccc(-c4cccc(CNCCc5ccncc5)c4)s3)[nH]c2c1` it is 120 nM.
Next, `Cc1cccc2[nH]c(-c3cccc(-c4ccc(C(=O)NCc5ccccc5S(C)(=O)=O)cc4)c3)nc12`: 750 nM; `CC(=NNC(=S)Nc1ccccc1Cl)c1ccccn1`: 80 nM; `O=C(NCC1CCN(Cc2ccsc2)C1)c1cc(-c2cccc(C(F)(F)F)c2)cs1` (stereo unspecified): 700 nM.
The compound `CC(C)(C)C(=O)Oc1ccc(CC2NCCc3cc(OC(=O)C(C)(C)C)c(OC(=O)C(C)(C)C)cc32)cc1OC(=O)C(C)(C)C` (stereo unspecified) registered an IC50 of 420 nM.
Next, `CCNc1cc(C(=O)N[C@@H](Cc2ccccc2)[C@H](O)CNC2C3CC4CC(C3)CC2C4)cc(N2CCCCS2(=O)=O)c1` (stereo partly specified): 670 nM.
In turn, `CCCCOC(=O)C1=C(C)NC2=C(C(=O)CC(c3ccc(OC)c(OC)c3)C2)C1c1ccc(O)cc1` (stereo unspecified) had an IC50 of 830 nM.
`Cc1nc(N)nc(N)c1-c1ccc(Br)c(Br)c1`: the half-inhibitory concentration (IC50) was 50 nM.
Turning to `CCCNC(=O)Nc1ccc(N(C)c2ccnc(NC3CC3)n2)cc1`, the 50% inhibitory concentration (IC50) is 620 nM.
Next, `COc1ccc(NC(=O)c2ccc3[nH]c(-c4ccc(Cl)cc4)cc3c2)cc1OCCN(C)C`: 810 nM.
Next, `Cc1[nH]n(-c2cccc(Cl)c2)c(=O)c1-c1ccc(Cl)cc1`: 930 nM; `CCNCc1ccc(-c2cccc(-c3nc4ccccc4[nH]3)c2)cc1`: 550 nM.
Regarding `CCOc1ccc(-c2nonc2NC(=O)c2ccc(OC)cc2)cc1OCC`, the IC50 stood at 820 nM.
Next, `NC1=NC(Cc2ccccc2)N(c2ccc(Cl)cc2)C(N)=N1` (stereo unspecified): 140 nM.
Next, `COc1cc2nc(C)nc(Nc3cccc(Br)c3)c2cc1OC`: 360 nM.
The figure for `CC(C)[C@@H](NC(=O)NC1CCC(CCN2[C@@H]3CC[C@H]2CC(OC(=O)C(CO)c2ccccc2)C3)CC1)C(O)(c1ccccc1)c1ccccc1` (stereo partly specified) is 810 nM; for `O=C(CCCCCNC(=O)c1ccc(O)c(-c2ccc(Cl)c(Cl)c2)c1)NCCN1CCCCC1` it is 890 nM; for `CC(C)CNCc1ccc(-c2ccc(CNC3CCN(Cc4ccccc4)CC3)cc2)cc1` it is 560 nM.
`CC(=O)Nc1cccc(C(=O)Nc2cccc(-c3csc(-c4nc5ccccc5[nH]4)c3)c2)c1` gave a half-inhibitory concentration (IC50) of 180 nM.
Next, `O=C1OC(c2ccccc2)(c2ccccn2)CN1C1CCN(Cc2cccn2-c2ccc(Cl)cc2)CC1` (stereo unspecified): 470 nM; `COc1cc(NCC(C)CNCc2cn(Cc3ccccc3)c3ccccc23)nc2ccccc12` (stereo unspecified): 630 nM.
On to `O=c1cc(NCCCNCc2[nH]c3cc(Cl)cc(Cl)c3c2Cn2cccn2)[nH]c2ccccc12`, for which the IC50 was found to be 970 nM.
